Measurements as given in ChEMBL document CHEMBL1154146, “A 2-substituted prodiginine, 2-(p-hydroxybenzyl)prodigiosin, from Pseudoalteromonas rubra” (J Nat Prod, 2008).
Active and inactive are the calls of the source. The rule behind the calls is not given here.

Legend:
SK-OV-3 = test: Cytotoxicity against human SKOV3 cells after 48 hrs by SRB assay; assay type: functional, cell-based; conditions: SK-OV-3, 48 h
[1] = biological target: T1, DNA topoisomerase 1 (Homo sapiens) (UniProt P11387); test: Inhibition of human topoisomerase 1
T1 sequence (whole entry): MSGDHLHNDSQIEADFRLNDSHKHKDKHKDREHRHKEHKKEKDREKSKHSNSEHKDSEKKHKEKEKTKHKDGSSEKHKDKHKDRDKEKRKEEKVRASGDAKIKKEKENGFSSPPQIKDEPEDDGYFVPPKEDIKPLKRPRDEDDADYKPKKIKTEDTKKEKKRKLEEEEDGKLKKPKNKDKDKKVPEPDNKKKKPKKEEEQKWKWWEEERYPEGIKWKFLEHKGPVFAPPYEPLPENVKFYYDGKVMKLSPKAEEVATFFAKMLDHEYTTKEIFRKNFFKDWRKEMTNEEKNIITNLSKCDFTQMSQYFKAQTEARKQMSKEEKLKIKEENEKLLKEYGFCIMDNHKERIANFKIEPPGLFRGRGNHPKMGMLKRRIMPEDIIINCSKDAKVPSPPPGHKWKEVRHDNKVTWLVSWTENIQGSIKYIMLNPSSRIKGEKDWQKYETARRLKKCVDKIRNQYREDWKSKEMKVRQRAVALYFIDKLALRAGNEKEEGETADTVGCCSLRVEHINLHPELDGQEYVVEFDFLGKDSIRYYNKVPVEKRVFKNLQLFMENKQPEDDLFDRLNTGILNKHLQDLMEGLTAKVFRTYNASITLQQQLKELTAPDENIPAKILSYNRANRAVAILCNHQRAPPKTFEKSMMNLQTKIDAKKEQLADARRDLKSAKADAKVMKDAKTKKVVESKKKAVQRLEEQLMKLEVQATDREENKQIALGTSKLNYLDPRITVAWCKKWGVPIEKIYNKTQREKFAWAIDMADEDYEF

Which results are given for `CCCCCC1=C/C(=C/c2[nH]c(-c3ccc(Cc4ccc(O)cc4)[nH]3)cc2OC)N=C1C`?
IC50 (SK-OV-3): 1300 nM; inhibition [1]: Active

How did the IC50 (SK-OV-3) turn out when `CCCCCC1=C/C(=C/c2[nH]c(-c3ccc[nH]3)cc2OC)N=C1C` [PRODIGIOSIN] was run?
The IC50 was 1300 nM.

And the inhibition [1]?
Its inhibition is “Active”.
